From patent US20250295668A1, “METHODS FOR INDUCING COLANIC ACID BIOSYNTHESIS” (priority 2024, published 2025)
“And” between values parts separate entries of the source, which are not always exact repeats. Identical values can stand only once. “Also recorded” adds a separate entry of the source.

Columns and labels:
wildtype E. coli = assay: Colanic acid measurement (fucose quantification) in wildtype E. coli culture medium; assay type: cell-based
Procedure: For colanic acid quantification, E. coli Keio mutants and the parental strain BW25113 were cultured overnight at 37° C. in M9 minimum medium [PMID: 28436966]. Bacteria were then removed by centrifugation and filtered for colanic acid measurement.
(§1) The desired bacterial strain was first inoculated and cultured in M9 minimum medium overnight at 37° C. to obtain the seeding culture. The OD 600 was measured, and the seeding bacteria were diluted to OD600=0.02 in M9 minimum medium for another 16 hours. After the incubation, bacterial cultures were collected in 50 mL tubes, spun down at 4,000 g at 4° C. for 30 min, filtered, and 25 mL of supernatant was collected per 50 ml conical tube. Ice-cold 100% ethanol (EtOH) was added to make a final 50% EtOH solution for precipitation, and the mixture was kept at 4° C. overnight. Once precipitation occurred, the liquid was carefully removed after centrifugation at 4,000 g at 4° C. for 50 min. The pellet was washed once with cold 80% EtOH and then air-dried in a hood. The pellet from every 50 mL culture was resuspended in 500 μL distilled H2O. The solution was sonicated for 60 minutes at 37° C., followed by centrifugation at 4000 g at 4° C. for 10 minutes. A 200 μL sample was mixed with 30 μL hydrochloric acid (320331-500 mL, Sigma-Aldrich) and boiled for 2 hours. Subsequently, 60 μL 5M NaOH and 150 μL NaHCO3/NaOH buffer were added to reach a pH of 6-8, calibrated by 1M HCl or NaOH solutions. The fucose quantification assay was then carried out using a K-FUCOSE kit (Megazyme) according to the manufacturer's protocol.
Next, colanic acid in the bacteria culture medium was quantified via monosaccharide-fucose-from acid-hydrolyzed polysaccharide precipitates. […] Calculations were performed to determine the equivalent dosage by weight in a mammalian subject. Briefly, a typical mouse consumes 5-10 ml of water per day and weighs between 30-40 g. Using the 1.8 μg/mL concentration, a lower bound of 0.225 mg/kg (0.0018 mg/mL×5 ml[…]0.04 kg) and a higher bound of 0.6 mg/kg (0.0018 mg/mL×10 ml÷0.03 kg) were identified. […] In wild-type bacteria treated with cephaloridine and Alon E. coli mutants colanic acid production increased during the exponential growth phase and remained elevated in the stationary phase (FIG. 1D).

cps promoter = assay: cps G-R reporter bacteria imaging in vitro (GFP-to-RFP ratio); assay type: cell-based, E. coli; conditions: low-dose cephaloridine, cultured at 37° C.
Procedure: For high-resolution imaging, rph1 ilvG rfb-50 attL (Psyn135::mcherry <FRT>) attHKPR218 (cps G-R reporter strain), a genetically modified strain derived from MG1655 (genotype rph1 ilvG rfb-50), was generated. pPR218, integrated at the HK site, encodes Pcps::sfGFP and chloramphenicol resistance.
In vitro imaging: The cps G-R reporter strain was cultured in M9 minimal medium. Bacteria culture was harvested at an OD600 of 0.6. For bacteria imaging, 1 μL of the culture was loaded onto a 1% low-melt agarose pad made with M9 medium [PMID: 23680982].
MG1655, a human-derived commensal K12 strain, was treated with a low dose of cephaloridine at 37° C., which induced colanic acid production (FIG. 3A). […] To determine whether cephaloridine activates cps expression in a commensal bacterium in a mammalian host, MG1655 was engineered as shown in FIG. 3C to express GFP under the control of the cps promoter and to constitutively express RFP under a synthetic promoter syn135, resulting in the cps G-R reporter strain. […] The luminal content of mice ileum was harvested after 3 hours of cephaloridine administration and were imaged for fluorescence. […]

[1] = PMID 9165537; cited from earlier work
C. elegans = C. elegans lifespan assay on antibiotic-treated E. coli; assay type: in vivo, Caenorhabditis elegans
Procedure: For longitudinal assays, E. coli Keio mutants were initially cultivated in M9 minimum medium at 37° C. for 16 hours. Subsequently, bacteria at stationary phase were reinoculated in fresh M9 medium with a low dose of cephaloridine at 37° C. for another 16 hours. A 100 μL aliquot of the bacteria culture was seeded onto each 6-cm NGM plate and maintained at 20° C. Fresh bacteria plates were prepared every other day for transfer to alive worms. Caenorhabditis elegans var. Bristol N2 strain was obtained from the Caenorhabditis Genome Center. The strain was maintained on standard nematode growth medium (NGM) agar plates seeded with corresponding bacteria at 20° C. Age synchronization of C. elegans was achieved by isolating eggs as previously described [PMID: 4858229]. Lifespan assays were performed as previously described [PMID: 25554789]. In brief, age-synchronized C. elegans at the L1 stage were seeded onto designated bacteria lawns. Fresh bacteria-containing plates were made every other day for live C. elegans transfer. Once reaching adulthood as Day 0, worms were transferred to new bacteria plates. Death events were scored upon each transfer. Bagged worms and vulva protruding worms were censored throughout the analysis. Each assay contained 80-100 animals with 30-40 animals per 6 cm plate.

MG1655 E. coli = assay: Colanic acid production in MG1655 commensal E. coli; assay type: cell-based; conditions: MG1655, low-dose cephaloridine, 37° C.
Procedure: as §1, with “A 200 μL sample was mixed with 30 μL hydrochloric acid (320331-500 mL, Sigma-Aldrich) and boiled for 2 hours. Subsequently, 60 μL 5M NaOH and 150 μL NaHCO3/NaOH buffer were added to reach a pH of 6-8, calibrated by 1M HCl or NaOH solutions.” left out
MG1655, a human-derived commensal K12 strain, was treated with a low dose of cephaloridine at 37° C., which induced colanic acid production (FIG. 3A). […] The luminal content of mice ileum was harvested after 3 hours of cephaloridine administration and were imaged for fluorescence. […]

O=C(Cc1cccs1)N[C@@H]1C(=O)N2C(C(=O)[O-])=C(C[n+]3ccccc3)CS[C@H]12 [cephaloridine]
colanic acid production vs untreated wildtype control (wildtype E. coli; cephaloridine 1.8 μg/mL, 37° C.): 6 fold | optimal concentration for inducing colanic acid biosynthesis (wildtype E. coli; range of doses below MIC): 1.8 μg/mL and 4.3 μM | increase in GFP-to-RFP intensity ratio (cps promoter): 20% | absorption after oral administration [1]: poorly absorbed; also recorded: near-zero absorption | oral bioavailability [1]: extremely low oral bioavailability | C. elegans lifespan extension vs vehicle (C. elegans; MG1655 E. coli treated with 1.8 μg/mL): 13% and 13.3% | C. elegans lifespan (C. elegans; cephaloridine-treated rcsA deletion mutant E. coli): failed to extend lifespan | C. elegans lifespan (C. elegans; cephaloridine-treated rcsD deletion mutant E. coli): effectively promoted longevity | C. elegans lifespan extension vs vehicle (C. elegans; wildtype E. coli treated with 1.8 μg/mL): 14% | colanic acid production increase (MG1655 E. coli): 3.2 fold
